Assay results taken from paper PMC11748689, “Pharmacological and structural understanding of the Trypanosoma cruzi proteasome provides key insights for developing site-specific inhibitors” (The Journal of Biological Chemistry, 2024).
pIC50: −log10 of the molar value.

Tests used:
[1] = target: native T. cruzi proteasome (chymotrypsin-like activity, β5) (Trypanosoma cruzi, UniProt V5BU39+V5C017); experiment: Chymotrypsin-like activity assay (Proteasome-Glo), native T. cruzi proteasome; type: biochemical
native T. cruzi proteasome (chymotrypsin-like activity, β5), sequence (V5BU39 entry or part of it): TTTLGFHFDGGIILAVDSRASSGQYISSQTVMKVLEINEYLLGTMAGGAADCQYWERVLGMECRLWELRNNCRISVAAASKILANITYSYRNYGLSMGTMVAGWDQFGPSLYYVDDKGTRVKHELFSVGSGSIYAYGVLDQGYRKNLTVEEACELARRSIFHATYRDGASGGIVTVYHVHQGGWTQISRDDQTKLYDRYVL
native T. cruzi proteasome (chymotrypsin-like activity, β5), sequence (V5C017 entry or part of it): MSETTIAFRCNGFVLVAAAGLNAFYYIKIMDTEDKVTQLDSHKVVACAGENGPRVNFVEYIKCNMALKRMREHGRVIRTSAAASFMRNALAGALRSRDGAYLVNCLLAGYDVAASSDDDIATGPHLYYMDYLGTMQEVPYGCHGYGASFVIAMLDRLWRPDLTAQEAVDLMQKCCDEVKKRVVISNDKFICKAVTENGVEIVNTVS
native T. cruzi proteasome (chymotrypsin-like activity, β5), sequence (V5BGL9 entry or part of it, further chain): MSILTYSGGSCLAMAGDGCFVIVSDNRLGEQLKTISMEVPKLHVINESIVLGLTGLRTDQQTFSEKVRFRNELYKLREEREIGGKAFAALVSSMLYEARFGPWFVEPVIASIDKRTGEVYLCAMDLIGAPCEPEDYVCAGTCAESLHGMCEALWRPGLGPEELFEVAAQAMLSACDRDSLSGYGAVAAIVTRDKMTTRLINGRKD
Experimental: Chymotrypsin-, trypsin-, and caspase-like activity assays were performed using a commercially available Proteasome-Glo 3-substrate system assay kit (catalog number G8532) (Promega Corporation) according to the manufacturers protocols and as previously described ([24]).
Prior to running assays, Proteasome-Glo buffer was used to reconstitute the luciferin detection reagent (containing a recombinant thermostable luciferase enzyme). The resuspended luciferin detection reagent was then mixed with Proteasome-Glo chymotrypsin-, trypsin- or caspase-like substrates (either 40 μM suc-Leu-Leu-Val-Tyr-aminoluciferin, 30 μM Z-Leu-Arg-Arg-aminoluciferin (Z is benzyloxycarbonyl) or 40 μM Z-Nle-Pro-Nle-Asp-aminoluciferin respectively (these concentrations represent 2x final assay concentrations)). These substrate mixtures were allowed to incubate at room temperature for 60 min prior to use to allow the removal of any contaminating free aminoluciferin.
When proteasome inhibitors were to be screened in the chymotrypsin, trypsin, and caspase assays, test compounds were dispensed into assay wells using an ECHO 550 acoustic dispenser (Labcyte) (final DMSO concentration 1%). Compounds were tested in either a 10-point concentration series (30 μM top final assay concentration, 1 in 3 dilution series) or a 12-point concentration series (30 μM top final assay concentration, 1 in 2.5 dilution series).
Proteasome assays were then performed as described above using Promega Proteasome-Glo 3-substrate system assay kit. […] Diluted proteasome (4 μl) was added to assay plates using an electronic multichannel pipette (Integra Biosciences Ltd) and the proteasome incubated with compound for 60 min at room temperature.
Following the 60 min incubation of proteasome and compounds, assays were initiated with the addition of 4 μl of a substrate mix (containing substrate and the luciferin detection reagent) using an electronic multichannel pipette. Final assay concentrations of substrates used were either 20 μM Suc-Leu-Leu-Val-Tyr-aminoluciferin, 15 μM Z-Leu-Arg-Arg-aminoluciferin, or 20 μM Z-Nle-Pro-Nle-Asp-aminoluciferin for chymotrypsin-, trypsin-, or caspase-like activity, respectively. Following a further 60 min assay incubation, luminescence was read using an EnVision 2102 Multilabel Reader (PerkinElmer, Inc) with 0.2 s per well reading time.
All data processing was performed using Microsoft Excel for Microsoft 365 software.
Nonlinear dose-response curve fitting was carried out using the Microsoft Excel add-in, XLfit (IDBS). Percentage inhibition data were either fitted to a standard 4-parameter logistic fit model (XLfit model 205; Equation 2) or a biphasic model (either XLfit model 300; Equation 3 or a custom biphasic model; Equation 4 (used in cases where the top and/or bottom parameters deviated from 100%/0% inhibition)).(2) y=A+(B−A)/1+(C/x)^D Where A = % inhibition at bottom, B = % inhibition at top, C = IC50, D = slope, x = inhibitor concentration and y = % inhibition.(3) y=(A/(1+10^(C−log(x))∗B))+((100−A)/(1+10^(D−log(x))∗B)) With A = % inhibition at midplateau, B = slope, C = log(IC50^A), D = log(IC50^B)).
All IC50 data generated were converted to pIC50 using Equation 5.

[2] = target: human proteasome (chymotrypsin activity) (Homo sapiens, UniProt P28074); experiment: Human proteasome chymotrypsin activity assay; type: biochemical; details: dose response curve, n = 2 (Fig. S7)
Experimental: Human proteasome assays were carried out as described in ([42]).

Compound	pIC50 [1]	inhibition of the human chymotrypsin activity [2]
O=C(Nc1ccc(F)c(-c2cn3nc(-c4ccccc4)cnc3n2)c1)N1CCCC1 [DDD01012248]	7.51	–
O=C(Nc1ccc(F)c(C(=O)NC2CC2)c1)c1ccc(COc2ccccc2)o1 [DDD02091966, N-(3-(cyclopropylcarbamoyl)-4-fluorophenyl)-5-(phenoxymethyl)furan-2-carboxamide]	7.42	no inhibition
